Test results as given in patent US9897592B2, “Methods for identifying arthropod repellents and attractants, and compounds and compositions identified by such methods” (The Regents of the University of California, priority 2013, dated 2018).

Columns and labels:
[1] = tested on: C. quinquefasciatus; test: Semi-field two-choice greenhouse trapping; format: in vivo, Culex quinquefasciatus
Excerpt: FIG. 4g is a schematic of two-choice greenhouse experiments with two counterflow geometry traps, in which mosquitoes were trapped overnight in odorant-baited and solvent (water)-baited traps.
Semi-field trapping: Two modified greenhouses at the Agricultural Experiment Station at the University of California, Riverside, were used as described previously^2, with modifications. Fifty laboratory-reared, mated, non-blood fed female C. quinquefasciatus aged 8-14 days and starved for 24 hrs were released each evening around 5 pm and traps collected at ˜7 am. Counter flow geometry traps baited with CO2 (250 ml min^−1, ˜670 mmol/hr) odorant were used as described^2, with modifications. Odorant solutions in water were dispensed from 20 cm long gauze wicks protruding from uncapped 50 ml tubes beneath the trap outflow. For each trial, one baited trap and one control trap (water-filled) were placed in each of two greenhouses (FIG. 4g). For two-choice CO2 trials, water was placed under both traps. For two-choice ethyl pyruvate trials, both traps expelled CO2, and one trap also released ethyl pyruvate from an open 2.8×7 cm glass vial. Since ethyl pyruvate has very low volatility pure compound was used to generate ˜1.7 mmol/hr. An empty vial was placed under control traps. Treatment position and trap were alternated across trials. Volume of solution lost from tubes containing 5%, 10%, or 20% cyclopentanone were measured after each trial and the average loss of molecules calculated respectively for 3 concentrations as (±s.d.) of 0.7 (±0.1), 1.7 (±0.4), and 3.8 (±0.3) mmol/hr, respectively. Preference index=(# mosquitoes in odor-baited trap−# mosquitoes in control trap)/(total # mosquitoes caught in both traps).
The efficacy of cyclopentanone as a lure was tested using traps in controlled semi-field experiments with C. quinquefasciatus, a mosquito present in Southern California, where the experiments took place. 50 female mosquitoes were released overnight in a modified greenhouse that contained two counter-flow geometry mosquito traps (FIG. 4g). One trap was baited with an evaporative lure of cyclopentanone diluted in water, and the second trap was baited with water alone.

[2] = tested on: cpA neuron; test: Single-sensillum recording: activation of cpA neuron by odorants; format: cell-based, Aedes aegypti; conditions: for Activation (spikes s^−1): A. aegypti cpA, 0.5-s pulses, odorants 10^−2 in paraffin oil or water, solvent response subtracted
In short: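 Single-sensillum extracellular recordings from cp sensilla of adult female A. aegypti (Rockefeller), 3-12 days post-emergence. Odorants at 10^−2 in paraffin oil or water, 0.5-s pulses; solvent response subtracted, spikes counted; n=2-6, sensilla with <20 spikes s^−1 to negative control only.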

[3] = tested on: cpA neuron; test: cpA dose response in C. quinquefasciatus; format: cell-based, Culex quinquefasciatus
Description: FIG. 4d is a graph illustrating the dose responses of the cpA neuron to cyclopentanone in A. aegypti and C. quinquefasciatus, where n=5-6.
Adult female A. aegypti (Linnaeus 1762) (Rockefeller strain) A. gambiae sensu stricto Giles 1902 (G3 strain), or C. quinquefasciatus Say 1823 were tested 3-12 days post-emergence with single-sensillum extracellular recordings. Chemicals were obtained from Sigma-Aldrich at the highest purity (typically >99%) and were dissolved in paraffin oil or water. […] Response to clean beads was subtracted from the results reported. Only sensilla with cpA activity of <20 spikes s^−1 to negative control were considered for analysis.
Taken together, the strong and conserved cpA response, promising safety and fragrance profile, and ability to mimic CO2 activation made cyclopentanone an excellent candidate for behavioural testing.

[4] = target: human acetylcholinesterase (Homo sapiens, UniProt P22303); conditions: cited from earlier work
[5] = tested on: mammalian cation channels; conditions: cited from earlier work
[6] = tested on: A. aegypti; test: Wind tunnel assay of attraction to human foot odor beads; format: in vivo, Aedes aegypti
Description: FIG. 2h is a schematic of wind tunnel assay, where human odor was provided by a dish of glass beads that had been worn in socks for ˜6 hrs (Person 1), and flight behaviour of individual female mosquitoes was recorded for 5 min or until they landed on the beads.
FIGS. 2i-k are bar graphs illustrating the proportion of butyryl chloride pre-exposed and sham treated mosquitoes presented with beads with no odor or foot odor that landed on beads (FIG. 2i), that took off from the release cage (FIG. 2j), and that did take off that succeeded in landing on the beads (FIG. 2k), where n=20-23 individuals per condition, analysed by one-tailed proportion Z-test, *p<0.05, **p<0.01, ***p<0.001, and error bars are s.e.m. All odorants except CO2 were dissolved in paraffin oil at 10^−2 except where indicated. […]

[7] = tested on: A. aegypti; test: Short-range attraction to heat and humidity; format: in vivo, Aedes aegypti; conditions: after pre-exposure; control for general deficits
Description: FIG. 9f illustrates mosquitoes' tendency to rest at the top surface of the cage increased in the presence of a warm, wet stimulus. […] No significant differences due to treatment (n=6 replicates; Mann-Whitney rank-sum test).
Ten 6-day-old female A. aegypti were starved 30 hrs in a 7 cm diameter×˜5 cm high cage with wire mesh on one side and placed inside an aquarium. After 5 min a beaker with 750 ml warm water (40° C.) and filter paper soaked with 400 μl water were placed 5 mm above the cage (FIG. 9e). CpA-off and sham treated mosquitoes were video-recorded and counted at 30 s intervals.

[8] = tested on: cpA neuron; test: Butyryl chloride pre-exposure (cpA-off): cp sensillum responses to CO2, skin odorants, foot odor; format: cell-based, Aedes aegypti
Excerpt: FIG. 2b depicts representative cp responses to 0.5-s pulses of indicated odorants after a 3-min pre-exposure to butyryl chloride (10^−2) (cpA-off) or solvent (sham treatment).
FIG. 2c is a bar graph illustrating the mean odorant-evoked responses of the cpA neuron in cpA-off and sham treated mosquitoes, and FIG. 2d is a bar graph illustrating the combined odor-evoked responses of two neighbouring neurons, cpB and cpC, where for both of these figures, n=6 individuals, 1-4 sensilla surveyed per individual; analysed by nested ANOVA, and baseline refers to cpA activity in the presence of room air.
(§1) CpA-off and sham treated mosquitoes were pre-treated for 3 min in an upended 1 L glass dish in which 100 μl of fresh butyryl chloride (1%) or paraffin oil was allowed to vaporize for 10-20 min. The odor delivery system for different screens is shown in FIG. 7b; solvent responses during the same recording session were subtracted. Inhibition screen was tested. For the ultra-prolonged activator the 3-s stimulus was delivered from a 10 ml disposable pipette using a CS-55 stimulus controller (Syntech), CO2 was delivered, and responses to subsequent odor stimuli were calculated by subtracting baseline activity 1 s prior to each stimulus. When responses to repeated pulses of cyclopentanone and CO2 were compared, baseline activity between seconds 5 and 6 following each stimulus was subtracted. Spike counting was done manually or with Igor Pro6.2 (Wavemetrics) with the Neuromatic v2.00 macro (by Jason Rothman), and peak-to-peak spike amplitudes for FIG. 8 were analysed in Clampfit 10.3 (Molecular Devices).

[9] = tested on: antennal neurons; test: Electroantennogram (EAG) after butyryl chloride treatment; format: cell-based, Aedes aegypti
Description: FIG. 2e is a graph illustrating averaged traces and FIG. 2f is a graph illustrating mean electroantennograph (EAG) responses to air puffed over glass beads laden with foot odor or a clean bead control, where EAG peaks are normalized to 3-methyl-1-butanol response, n=9, and analysed by t-test.
FIG. 9d illustrates EAG responses normalized to the reference odor 3-methyl-1-butanol. No significant differences due to treatment (n=9; t-test).
Standard whole-antenna recordings were performed with minor modifications. Traces were averaged using Clampfit software (Molecular Devices), and responses were normalized to interspersed pulses of a reference odorant, 3-methyl-1-butanol, according to the formula: Raw response (mV)/(ax+by), where a and b are the responses (mV) to the immediately previous and subsequent reference odor stimulation, respectively, and x and y are the proportion of time elapsed between stimuli (so that x+y=1).

[10] = tested on: cpA neuron; test: Inhibition screen: odorant overlaid on 0.15% CO2 stimulus, cpA response; format: cell-based, Aedes aegypti; conditions: overlaid on 0.15% CO2
Description: Percent inhibition was calculated by comparing mean odorant overlay responses to mean solvent overlay responses, and error bars are s.d.
as §1

[11] = tested on: cpA neuron; test: Ethyl pyruvate overlaid on foot odor stimulus, cpA response; format: cell-based, Aedes aegypti; conditions: presented together, 1-s 10^−2 on 2-s foot odor
Excerpt: FIG. 4b depicts representative trace and mean response when a 1-s stimulus of ethyl pyruvate (10^−2) is overlaid on a 2-s stimulus of foot odor (mixed beads from Person 1 and Person 2), where n=6.
The cpA inhibitor ethyl pyruvate was selected for testing since it is listed as a GRAS compound, is approved as a flavor agent in food, and has a pleasant smell (fruity, sweet, rum, caramel) (Table 3 above).

[12] = tested on: A. aegypti; test: Hand-in-cage repellency assay; format: in vivo, Aedes aegypti; conditions: mesh treated 500 μl, 10% in acetone
Excerpt: FIG. 4c depicts representative images (left) of hand-in-cage assay mesh window and a graph (right) illustrating the mean number of mosquitoes on the netting at the indicated time points for ethyl pyruvate-treated or solvent-treated netting. n=8 each.
Forty 4-10-day-old female A. aegypti were starved 24 hrs and released in a 30×30 cm cage with a glass top, and trials commenced between 1400 and 1700 hrs. A human hand wearing a nitrile glove (Sol-vex) with a 7×6 cm window covered by two layers of fine polyester mesh (BioQuip, mesh size 26×22 holes per in^2) held in place by magnetic spacers, was inserted into the cage. The lower mesh was 1.5 mm above, and upper mesh was 6 mm above the hand. While skin emanations passed freely through the mesh window, the hand was protected from contact with mosquitoes and treated mesh. The outside mesh was treated with ethyl pyruvate (500 μl, 10% in acetone) or solvent. After letting solvent evaporate the glove was assembled. […] Trials were video recorded and mosquitoes on the mesh were counted every 15 s.
An arm-in-cage repellency assay was used in this Example using gloves with chemical treated mesh-covered windows to quantify attraction of A. aegypti mosquitoes to the human hand without exposing the hand to mosquito bites or skin to contact with test chemicals.

human acetylcholinesterase, sequence (P22303 32-614): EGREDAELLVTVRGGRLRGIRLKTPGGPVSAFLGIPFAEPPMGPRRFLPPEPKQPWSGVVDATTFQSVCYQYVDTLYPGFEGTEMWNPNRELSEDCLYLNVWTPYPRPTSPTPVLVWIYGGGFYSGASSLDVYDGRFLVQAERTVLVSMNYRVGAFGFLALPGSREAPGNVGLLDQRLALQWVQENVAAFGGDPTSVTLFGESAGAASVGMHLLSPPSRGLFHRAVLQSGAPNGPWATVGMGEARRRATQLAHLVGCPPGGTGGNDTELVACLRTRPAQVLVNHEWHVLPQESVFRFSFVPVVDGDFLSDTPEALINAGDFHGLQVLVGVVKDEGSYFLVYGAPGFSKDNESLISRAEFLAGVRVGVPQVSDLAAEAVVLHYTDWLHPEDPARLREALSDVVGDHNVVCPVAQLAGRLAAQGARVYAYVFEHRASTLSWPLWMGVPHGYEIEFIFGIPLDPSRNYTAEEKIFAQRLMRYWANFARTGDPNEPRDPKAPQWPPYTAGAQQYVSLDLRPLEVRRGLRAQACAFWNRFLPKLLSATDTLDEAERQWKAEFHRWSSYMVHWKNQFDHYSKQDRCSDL

SMILES: O=C1CCCC1 [Cyclopentanone]
- fold fewer molecules released than CO2 for comparable catch rate ([1]; calculated from amount evaporated): ~176 fold
- trap preference, odorant-baited vs solvent-baited trap ([1]; evaporative lure in water, overnight): preferred cyclopentanone over solvent-baited traps in a dose-dependent manner
- capture numbers relative to CO2-baited traps ([1]; similar trials in parallel): comparable
- Activation (spikes s^−1) [2]: 120.1 spikes s^−1
- cpA activation ([2]; A. aegypti dose response): strong activator
- cpA activation [3]: strong activator

SMILES: CCN(CC)C(=O)c1cccc(C)c1 [DEET, N,N-Diethyl-m-toluamide]
- inhibition of human acetylcholinesterase [4]: inhibit
- inhibition of mammalian cation channels [5]: inhibit

SMILES: CCCC(=O)Cl [butyryl chloride]
- proportion of mosquitoes that initiated upwind flight from release cage ([6]; after pre-exposure (cpA-off)): greatly reduced
- proportion of mosquitoes that landed on human odor beads ([6]; after pre-exposure, 5-min assay): substantially reduced
- ability or preference for resting at top of cage, warm moist stimulus [7]: did not impair
- cpA subsequent responses to 1% CO2 ([8]; 3-min exposure to 10^−2 volatiles, tested ~5-20 min after exposure): completely abolished
- cpA responses to activating skin odorants ([8]; after 3-min pre-exposure): substantially reduced
- time to recovery of cpA to control levels after treatment ([8]; after 3-min pre-exposure): 12 to 24 h
- odor-evoked responses of cpB and cpC neurons ([8]; after treatment, selectivity for cpA): not reduced
- cpA firing in response to subsequent CO2 stimuli ([8]; single puff of 1% butyryl chloride): inhibits cpA from firing
- cpA response to foot odor collected on beads ([8]; tested ~5-20 min after exposure): completely lost
- summed responses of antennal neurons to panel of skin odorants (EAG) ([9]; after treatment): unaffected
- summed response of antennal neurons to foot odor (EAG) ([9]; with or without treatment): not statistically different

SMILES: CCOC(=O)C(C)=O [ethyl 2-oxopropanoate]
- inhibition of cpA activity [10]: strongly inhibited
- response of cpA neuron to human foot odor [11]: completely eliminates
- catch of CO2-baited trap also dispensing odorant vs control CO2-baited trap ([1]; pure compound, ~1.7 mmol/hr): significantly fewer mosquitoes
- Activation (spikes s^−1) [2]: −63.0 spikes s^−1
- number of times mosquitoes landed on mesh over human hand [12]: substantially reduced
